# Measurements published in patent US10457710B2, “Antimicrobial peptides, their variants and uses” (priority 2015, dated 2019).
# Where a SMILES comes first, the peptide text is derived from it. [ ]: non-standard residue; d: D form.
# Columns and labels:
# Format in all cases: cell-based
# [1] = test system: clinical strains of Acinetobacter baumannii; assay: MIC, microdilution, clinical strains; set-up: unit: μg/ml; settings: 0.02% BSA, 0.2% acetic acid
# Outline: (§1)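 Overnight MH agar colonies were suspended in MH broth to 5.0×10^5 cfu/ml, mixed with serial peptide dilutions (0.125–128 μg/ml) and incubated at 37° C for 20 to 24 hours. Yeast MICs were run the same way in potato dextrose broth, and wells were scored visually.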
# [2] = test system: clinical strains of A. johnsonii; assay: MIC, microdilution, clinical strains; set-up: unit: μg/ml; settings: Acinetobacter johnsonii strain 1, Muller Hinton broth-cation adjusted, 0.02% BSA, 0.2% acetic acid
# Outline: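 Visual growth inhibition defined the MIC in a microdilution assay where fungal strains were cultured in potato dextrose broth instead of MH broth. Cell density was set to 5.0×10^5 cfu/ml, and incubation lasted 20–24 h at 37° C across a 0.125–128 μg/ml series.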
# [3] = test system: clinical strains of K. pneumoniae; assay: MIC, microdilution, clinical strains; settings: 0.02% BSA, 0.2% acetic acid
# Outline: as §1
# [4] = test system: clinical strains of S. aureus; assay: MIC, microdilution, clinical strains; settings: 0.02% BSA, 0.2% acetic acid
# Outline: as §1
# [5] = test system: clinical strains of E. cloacae; assay: MIC, microdilution, clinical strains; settings: 0.02% BSA, 0.2% acetic acid
# Outline: as §1
# [6] = test system: clinical strains of P. aeruginosa; assay: MIC, microdilution, clinical strains; settings: 0.02% BSA, 0.2% acetic acid
# Outline: as §1
# [7] = test system: clinical strains of E. coli; assay: MIC, microdilution, clinical strains
# Outline: as §1
# [8] = test system: clinical strains of S. pneumoniae; assay: MIC, microdilution, clinical strains; settings: 0.02% BSA, 0.2% acetic acid
# Outline: as §1
# [9] = test system: clinical strains of Serratia marcescens; assay: MIC, microdilution, clinical strains; settings: 0.02% BSA, 0.2% acetic acid
# Outline: as §1
# [10] = test system: clinical strains of Proteus mirabilis; assay: MIC, microdilution, clinical strains; settings: 0.02% BSA, 0.2% acetic acid
# Outline: as §1
# C. parapsilosis = assay: MIC, clinical yeast strains
# Outline: (§2)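 For A. johnsonii, Mueller Hinton broth; for the clinical yeasts, Potato dextrose broth. In both, 5.0×10^5 cfu/ml was exposed to peptide over 0.125–128 μg/ml for 20–24 h at 37 °C, and MIC was read as the lowest concentration showing no visual growth.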
# Candida albicans = assay: MIC, clinical yeast strains
# Outline: as §2
# C. glabrata = assay: MIC, clinical yeast strains
# Outline: as §2
# C. quillermondiae = assay: MIC, clinical yeast strains; set-up: Minimum inhibitory concentration: unit: μg/ml; settings: C. quillermondiae clinical yeast strain 1
# Outline: as §2
smiles,measurement,setting,value
CC(C)C[C@@H](NC(=O)[C@H](N)CCCNC(=N)N)C(=O)N[C@H](CCCCN)C(=O)N[C@H](CCCNC(=N)N)C(=O)N[C@H](Cc1c[nH]c2ccccc12)C(=O)N[C@H](CCCNC(=N)N)C(=O)N[C@H](CC(C)C)C(=O)N[C@H](Cc1ccccc1)C(=O)N[C@H](CCCNC(=N)N)C(=O)N[C@H](CCCCN)C(=O)N[C@H](CCCNC(=N)N)C(=O)O [Chain306D] (H-[dR][dL][dK][dR][dW][dR][dL][dF][dR][dK][dR]-OH),Minimum inhibitory concentration,"[1]; Acinetobacter baumannii strain 1, Muller Hinton broth-cation adjusted",16
same,Minimum inhibitory concentration,"[1]; Acinetobacter baumannii strain 2, Muller Hinton broth-cation adjusted",32
same,Minimum inhibitory concentration,"[1]; Acinetobacter baumannii strain 3, Muller Hinton broth-cation adjusted",16
same,Minimum inhibitory concentration,"[1]; Acinetobacter baumannii strain 4, Muller Hinton broth-cation adjusted",16
same,Minimum inhibitory concentration,"[1]; Acinetobacter baumannii strain 5, Muller Hinton broth-cation adjusted",8
same,Minimum inhibitory concentration,[2],16
same,Minimum inhibitory concentration,"[3]; Klebsiella pneumoniae strain 1, Muller Hinton broth-cation adjusted",128
same,Minimum inhibitory concentration,"[3]; Klebsiella pneumoniae strain 2, Muller Hinton broth-cation adjusted",>128
same,Minimum inhibitory concentration,"[3]; Klebsiella pneumoniae strain 3, Muller Hinton broth-cation adjusted",>128
same,Minimum inhibitory concentration,"[3]; Klebsiella pneumoniae strain 4, Muller Hinton broth-cation adjusted",64
same,Minimum inhibitory concentration,"[3]; Klebsiella pneumoniae strain 5, Muller Hinton broth-cation adjusted",64
same,Minimum inhibitory concentration,"[4]; Staphylococcus aureus strain 1, Muller Hinton broth-cation adjusted",16
same,Minimum inhibitory concentration,"[4]; Staphylococcus aureus strain 2, Muller Hinton broth-cation adjusted",32
same,Minimum inhibitory concentration,"[4]; Staphylococcus aureus strain 3, Muller Hinton broth-cation adjusted",32
same,Minimum inhibitory concentration,"[4]; Staphylococcus aureus strain 4, Muller Hinton broth-cation adjusted",16
same,Minimum inhibitory concentration,"[4]; Staphylococcus aureus strain 5, Muller Hinton broth-cation adjusted",8
same,Minimum inhibitory concentration,"[5]; Enterobacter cloacae strain 1, Muller Hinton broth-cation adjusted",64
same,Minimum inhibitory concentration,"[5]; Enterobacter cloacae strain 2, Muller Hinton broth-cation adjusted",64
same,Minimum inhibitory concentration,"[5]; Enterobacter cloacae strain 3, Muller Hinton broth-cation adjusted",32
same,Minimum inhibitory concentration,"[5]; Enterobacter cloacae strain 4, Muller Hinton broth-cation adjusted",16
same,Minimum inhibitory concentration,"[5]; Enterobacter cloacae strain 5, Muller Hinton broth-cation adjusted",16
same,Minimum inhibitory concentration,"[6]; Pseudomonas aeruginosa strain 1, Muller Hinton broth-cation adjusted",128
same,Minimum inhibitory concentration,"[6]; Pseudomonas aeruginosa strain 2, Muller Hinton broth-cation adjusted",>128
same,Minimum inhibitory concentration,"[6]; Pseudomonas aeruginosa strain 3, Muller Hinton broth-cation adjusted",128
same,Minimum inhibitory concentration,"[6]; Pseudomonas aeruginosa strain 4, Muller Hinton broth-cation adjusted",>128
same,Minimum inhibitory concentration,"[6]; Pseudomonas aeruginosa strain 5, Muller Hinton broth-cation adjusted",128
same,Minimum inhibitory concentration,"[7]; Escherichia coli strain 1, microdilution, Muller Hinton broth-cation adjusted, 0.02% BSA, 0.2% acetic acid",1
same,Minimum inhibitory concentration,"[7]; Escherichia coli strain 2, microdilution, Muller Hinton broth-cation adjusted, 0.02% BSA, 0.2% acetic acid",2
same,Minimum inhibitory concentration,"[7]; Escherichia coli strain 3, microdilution, Muller Hinton broth-cation adjusted, 0.02% BSA, 0.2% acetic acid",2
same,Minimum inhibitory concentration,"[7]; Escherichia coli strain 4, microdilution, Muller Hinton broth-cation adjusted, 0.02% BSA, 0.2% acetic acid",2
same,Minimum inhibitory concentration,"[7]; Escherichia coli strain 5, microdilution, Muller Hinton broth-cation adjusted, 0.02% BSA, 0.2% acetic acid",2
same,Minimum inhibitory concentration,"[7]; clinical strains, peptide synthesized as D-form amino acids",1 µg/mL
same,Minimum inhibitory concentration,"[8]; Streptococcus pneumoniae strain 1, Muller Hinton broth-cation adjusted",64
same,Minimum inhibitory concentration,"[8]; Streptococcus pneumoniae strain 2, Muller Hinton broth-cation adjusted",64
same,Minimum inhibitory concentration,"[8]; Streptococcus pneumoniae strain 3, Muller Hinton broth-cation adjusted",64
same,Minimum inhibitory concentration,"[8]; Streptococcus pneumoniae strain 4, Muller Hinton broth-cation adjusted",128
same,Minimum inhibitory concentration,"[8]; Streptococcus pneumoniae strain 5, Muller Hinton broth-cation adjusted",64
same,Minimum inhibitory concentration,"[9]; Serratia marcescens strain 1, Muller Hinton broth-cation adjusted",>128
same,Minimum inhibitory concentration,"[9]; Serratia marcescens strain 2, Muller Hinton broth-cation adjusted",>128
same,Minimum inhibitory concentration,"[9]; Serratia marcescens strain 3, Muller Hinton broth-cation adjusted",>128
same,Minimum inhibitory concentration,"[9]; Serratia marcescens strain 4, Muller Hinton broth-cation adjusted",>128
same,Minimum inhibitory concentration,"[9]; Serratia marcescens strain 5, Muller Hinton broth-cation adjusted",>128
same,Minimum inhibitory concentration,"[10]; Proteus mirabilis strain 1, Muller Hinton broth-cation adjusted",>128
same,Minimum inhibitory concentration,"[10]; Proteus mirabilis strain 2, Muller Hinton broth-cation adjusted",>128
same,Minimum inhibitory concentration,"[10]; Proteus mirabilis strain 3, Muller Hinton broth-cation adjusted",>128
same,Minimum inhibitory concentration,"[10]; Proteus mirabilis strain 4, Muller Hinton broth-cation adjusted",>128
same,Minimum inhibitory concentration,"[10]; Proteus mirabilis strain 5, Muller Hinton broth-cation adjusted",>128
same,Minimum inhibitory concentration,C. parapsilosis; C. parapsilosis clinical yeast strain 1,8
same,Minimum inhibitory concentration,C. parapsilosis; C. parapsilosis clinical yeast strain 2,16
same,Minimum inhibitory concentration,C. parapsilosis; C. parapsilosis clinical yeast strain 3,16
same,Minimum inhibitory concentration,C. parapsilosis; C. parapsilosis clinical yeast strain 4,4
same,Minimum inhibitory concentration,Candida albicans; Candida albicans clinical yeast strain 1,16
same,Minimum inhibitory concentration,Candida albicans; Candida albicans clinical yeast strain 2,8
same,Minimum inhibitory concentration,Candida albicans; Candida albicans clinical yeast strain 3,8
same,Minimum inhibitory concentration,Candida albicans; Candida albicans clinical yeast strain 4,16
same,Minimum inhibitory concentration,Candida albicans; Candida albicans clinical yeast strain 5,16
same,Minimum inhibitory concentration,C. glabrata; C. glabrata clinical yeast strain 1,8
same,Minimum inhibitory concentration,C. glabrata; C. glabrata clinical yeast strain 2,8
same,Minimum inhibitory concentration,C. glabrata; C. glabrata clinical yeast strain 3,16
same,Minimum inhibitory concentration,C. glabrata; C. glabrata clinical yeast strain 4,32
same,Minimum inhibitory concentration,C. quillermondiae,4
